Reference: publication PMC8987933 (Frontiers in Nutrition, 2022)
Where two headings read alike, the source gives them in different places.

Key:
[1] = tested on: OATP2B1; settings: cited from earlier work
[2] = tested on: OATP1B3; settings: in vitro studies; cited from earlier work
[3] = tested on: human P-gp; settings: cited from earlier work
[4] = tested on: OATP1A2; settings: cited from earlier work
[5] = tested on: human BCRP; settings: cited from earlier work
[6] = cited from earlier work
[7] = cited from earlier work; remark: listed apart in the source
[8] = clinical; settings: human, in vivo
Description: Healthy Chinese male subjects aged 18–45 years were recruited from a pool of over 200 healthy volunteers who had been genotyped for the ABCG2 421C>A (rs2231142) polymorphism. A total of 20 healthy Chinese male subjects were selected for the rosuvastatin pharmacokinetic study based on the ABCG2 421C>A genotypes. The study was reviewed and approved by the Joint Chinese University of Hong Kong-New Territories East Cluster Clinical Research Ethics Committee with reference number CRE-2010.524-T. The study was performed in accordance with the ethical standards laid down in the Declaration of Helsinki and subsequent revisions. Written informed consent was obtained from each participant.
All subjects were required to abstain from any prescription or non-prescription medications 2 weeks before and throughout the study. They were not allowed to take alcohol, tea, grapefruit juice, caffeine, soybean milk or dietary supplements and herbal products 2 weeks before and throughout the entire study period. They were also not allowed to smoke 2 weeks before and throughout the study. Subjects were requested to fast for 10 h before and 4 h after drug administration during the blood sampling sessions. Meals were standardized and consumed at 4 h and 10 h post-dosing. Drinking water was not allowed from 1 h pre-dose to 1 h post-dose except that needed for drug dosing at the time of blood sampling sessions. Subjects were asked to report any adverse effects at each visit to the study center.
This was an open-label, three-phase randomized crossover study. […] The herbal extracts were present as a powder which was taken in 150 ml water at room temperature. Blood samples were taken at intervals from 0 to 24 h on the rosuvastatin dosing days. During the study, subjects were frequently reminded of the requirements for diet restrictions, and they were requested to record their daily food intake, including the main meals, snacks and beverages of the day by using a simple food diary, which can help to monitor the food compliance during the study.
Plasma concentrations of rosuvastatin were determined by Liquid Chromatography-Tandem Mass Spectrometry (LC-MS/MS) using the corresponding isotopically labeled compound as an internal standard as described ([28]). The plasma samples were prepared using liquid–liquid extraction with diethyl ether. Chromatographic separation was accomplished on an Xterra MS C18 column (50 × 2.1 mm, 5 μm; Waters, Milford, MA). The mobile phase consisted of a gradient mixture of 0.015 mmol/L ammonium acetate in water (mobile phase A) and methanol (mobile phase B) at a flow rate of 0.4 mL/min. The gradient started at 20% mobile phase B for 0.5 min with a subsequent fast gradient to 100% mobile phase B in 1 min and maintained for another 2.5 min. The gradient was then returned to the initial mobile phase concentration in a chromatographic run of 8 min. MS/MS detection with quantification transition of m/z 480.1–418.1 and qualification transition of m/z 480.1–340.1 was used for rosuvastatin. The lower limit of quantification of rosuvastatin was 0.05 μg/L by using 200 μL plasma.
The pharmacokinetic parameters of rosuvastatin were calculated using non-compartmental methods with the aid of the computer program WinNolin (version 2.1, Pharsight Corporation). The maximum plasma concentration (Cmax) and time to Cmax (tmax) were obtained directly from the observed concentration-time data. The terminal elimination rate constant (λZ) was estimated by linear regression of the terminal portion of the concentration-time curve, and the elimination half-life (t1/2) was calculated as 0.693/λZ. Systemic exposure to rosuvastatin was evaluated by calculating the AUC using the linear trapezoidal rule and AUC0−∞ was calculated as AUC0−∞ = AUC0−t + Ct/Kel where Ct is the last quantifiable concentration. The oral clearance (CL/F) was calculated as Dose/AUC0−∞.

[9] = cited from earlier work; remark: listed apart in the source
[10] = tested on: OATP1B1; settings: cited from earlier work
[11] = cited from earlier work; remark: listed apart in the source
[12] = with green tea; 10 healthy volunteers; cited from earlier work
[13] = rosuvastatin administered with 300 mg pure crystalline EGCG (single dose)
[14] = pre-treatment with green tea extract (400 mg/kg) vs control

With (–)-epigallocatechin-3-gallate [EGCG] as the compound, how does the “effect on OATP2B1-mediated uptake of estrone-3-sulfate” value ([1]; concentration-dependent) read?
The value was “inhibited”.

And the “effect on OATP1B3” value [2]?
Its value is “activate”.

What about the “effect on P-gp-mediated dasatinib efflux” value [3] of the same compound?
The value was “no significant effect”.

And the “effect on OATP1A2-mediated uptake of estrone-3-sulfate” value ([4]; concentration-dependent)?
Its value is “inhibited”.

And the “effect on BCRP-mediated dasatinib efflux” value [5]?
The value was “no significant effect”.

For `CCN(CC)CCNC(=O)c1c(C)[nH]c(/C=C2\C(=O)Nc3ccc(F)cc32)c1C` [sunitinib], which “effect of EGCG on bioavailability of sunitinib” value ([6]; EGCG and sunitinib taken together) is on record?
The value was “reduced the bioavailability”.

And the “effect of EGCG on the pharmacokinetics of sunitinib” value ([6]; EGCG taken 8 or 4 h before sunitinib administration)?
Its value is “no effect”.

Which results are given for `CC(C)c1nc(N(C)S(C)(=O)=O)nc(-c2ccc(F)cc2)c1/C=C/[C@@H](O)C[C@@H](O)CC(=O)O` [Rosuvastatin, rosuvastatin]?
change of systemic exposure of rosuvastatin after baicalin compared to placebo ([7]; SLCO1B1*1b/*1b subjects): −41.9%; change of systemic exposure of rosuvastatin after baicalin compared to placebo ([7]; SLCO1B1*1b/*15 subjects): −23.9%; Clearance (oral clearance CL/F) ([8]; po, 10 mg): 85.1 (28.4) L/h; AUC0−24h GMR (90%CI) ([8]; male): 0.78; Cmax GMR (90%CI) ([8]; male): 0.71; AUC(0-inf) ([8]; male, 10 mg): 118 ng·h/mL; AUC(0-t) ([8]; male, 10 mg): 109 ng·h/mL; Cmax ([8]; male, 10 mg): 13.1 (32.2) μg/L; half-life ([8]; male, 10 mg): 6.21 h; tmax ([8]; male, 10 mg): 3.0 (1.5, 6.0) h; systemic exposure of rosuvastatin vs baseline before EGCG ([9]; after giving EGCG daily for 10 days): not significantly different from the baseline value; reduction of AUC up to 8 h [9, 13]: 19%; reduction of Cmax [9, 13]: 15%

With `O=C(O[C@@H]1Cc2c(O)cc(O)cc2O[C@@H]1c1ccc(O)c(O)c1)c1cc(O)c(O)c(O)c1` [ECG, epicatechin gallate] as the compound, how does the “inhibition of OATP2B1” value [1] read?
The value was “can inhibit”.

And the “effect on P-gp-mediated dasatinib efflux” value [3]?
Its value is “no significant effect”.

What about the “inhibition of OATP1A2” value [4] of the same compound?
The value was “can inhibit”.

What about the “effect on BCRP-mediated dasatinib efflux” value [5] of the same compound?
The value was “no significant effect”.

What about the “inhibition of OATP1B1” value [10] of the same compound?
Its value is “can inhibit”.

Which “reduction in AUC of nadolol” value ([11]; EGCG alone (150 mg/kg)) does the source give for `CC(C)(C)NCC(O)COc1cccc2c1CC(O)C(O)C2` (centres unmarked) [nadolol] here?
The value was 73%.

And the “reduction in Cmax of nadolol” value ([11]; EGCG alone (150 mg/kg))?
The value was 81%.

And the “reduction in AUC of nadolol” value [11, 14]?
Its value is 74%.

And the “reduction in Cmax of nadolol” value [11, 14]?
The value was 85%.

And the “decrease of AUC of nadolol” value [12]?
Its value is 85.0%.

What about the “decrease of Cmax of nadolol” value [12] of the same compound?
Its value is 85.3%.

Which “effect on P-gp-mediated dasatinib efflux” value [3] does the source give for `Oc1cc(O)c2c(c1)O[C@H](c1ccc(O)c(O)c1)[C@H](O)C2` [EC, epicatechin] here?
Its value is “no significant effect”.

What about the “effect on BCRP-mediated dasatinib efflux” value [5] of the same compound?
The value was “no significant effect”.

For `Oc1cc(O)c2c(c1)O[C@H](c1cc(O)c(O)c(O)c1)[C@H](O)C2` [EGC, epigallocatechin], which “effect on P-gp-mediated dasatinib efflux” value [3] is on record?
The value was “no significant effect”.

What about the “effect on BCRP-mediated dasatinib efflux” value [5] of the same compound?
The value was “no significant effect”.
